Reference: BigSolDB 2.1

## OC(Cn1cncn1)(Cn1cncn1)c1ccc(F)cc1F
In ethanol, 293.15 K
  solubility (mole fraction): 0.0105
In ethanol, 298.15 K
  solubility (mole fraction): 0.0123
In ethanol, 303.15 K
  solubility (mole fraction): 0.014
In ethanol, 308.15 K
  solubility (mole fraction): 0.0157
In ethanol, 313.15 K
  solubility (mole fraction): 0.0183
In ethanol, 318.15 K
  solubility (mole fraction): 0.023
In ethanol, 323.15 K
  solubility (mole fraction): 0.0282
In water, 293.15 K
  solubility (mole fraction): 7.76e-05
In water, 298.15 K
  solubility (mole fraction): 7.99e-05
In water, 303.15 K
  solubility (mole fraction): 8.28e-05
In water, 308.15 K
  solubility (mole fraction): 8.58e-05
In water, 313.15 K
  solubility (mole fraction): 9.06e-05
In water, 318.15 K
  solubility (mole fraction): 9.59e-05
In water, 323.15 K
  solubility (mole fraction): 0.000104
